Data as given in the NIST ThermoML archive (doi:10.1016/j.jct.2005.07.009).
± gives the expanded uncertainty stated by the source.

Key:
[1] = xn = mol fraction of the nth substance listed; settings: 298.15 K, 101 kPa, Liquid, Vibrating tube method
[2] = excess molar enthalpy (molar enthalpy of mixing); xn = mol fraction of the nth substance listed; settings: 298.15 K, 101 kPa, Liquid

BrCCBr [1,2-dibromoethane] + CCCC(=O)OCC
Settings | excess molar enthalpy [kcal/mol] | mass density [kg/m3]
[1], x2 = 0.08 | – | 2015.53 ± 1.4
[1], x2 = 0.1235 | – | 1937.68 ± 1.5
[1], x2 = 0.1689 | – | 1859.7 ± 1.6
[1], x2 = 0.2131 | – | 1787.18 ± 1.7
[1], x2 = 0.311 | – | 1637.22 ± 1.9
[1], x2 = 0.3652 | – | 1559.91 ± 2
[1], x2 = 0.424 | – | 1480.28 ± 2.1
[1], x2 = 0.4807 | – | 1407.25 ± 2.1
[1], x2 = 0.5444 | – | 1329.31 ± 2.2
[1], x2 = 0.6754 | – | 1181.51 ± 2.3
[1], x2 = 0.7549 | – | 1098.99 ± 2.3
[1], x2 = 0.8227 | – | 1032.55 ± 2.3
[1], x2 = 0.9026 | – | 958.45 ± 2.3
[2], x2 = 0.0385 | 0.005 ± 0.000454 | –
[2], x2 = 0.0839 | 0.00753 ± 0.000478 | –
[2], x2 = 0.1324 | 0.00841 ± 0.000502 | –
[2], x2 = 0.1841 | 0.00779 ± 0.000502 | –
[2], x2 = 0.2355 | 0.00421 ± 0.00043 | –
[2], x2 = 0.2844 | -0.0011 ± 0.000382 | –
[2], x2 = 0.3336 | -0.00743 ± 0.000478 | –
[2], x2 = 0.3803 | -0.0131 ± 0.000598 | –
[2], x2 = 0.4245 | -0.0174 ± 0.000693 | –
[2], x2 = 0.4313 | -0.0181 ± 0.000693 | –
[2], x2 = 0.458 | -0.0205 ± 0.000741 | –
[2], x2 = 0.5024 | -0.0217 ± 0.000789 | –
[2], x2 = 0.5565 | -0.023 ± 0.000813 | –
[2], x2 = 0.6234 | -0.0229 ± 0.000813 | –
[2], x2 = 0.6941 | -0.0215 ± 0.000789 | –
[2], x2 = 0.7723 | -0.0185 ± 0.000717 | –
[2], x2 = 0.851 | -0.0141 ± 0.000621 | –
[2], x2 = 0.9264 | -0.00803 ± 0.000502 | –

BrCCBr [1,2-dibromoethane] + CCOC(=O)CC
Settings | excess molar enthalpy [kcal/mol] | mass density [kg/m3]
[1], x2 = 0.0479 | – | 2086.59 ± 1.4
[1], x2 = 0.0959 | – | 2007.68 ± 1.5
[1], x2 = 0.1904 | – | 1859.96 ± 1.8
[1], x2 = 0.2852 | – | 1720.53 ± 2
[1], x2 = 0.3448 | – | 1636.9 ± 2.1
[1], x2 = 0.4532 | – | 1492.57 ± 2.3
[1], x2 = 0.5156 | – | 1413.6 ± 2.3
[1], x2 = 0.5836 | – | 1330.59 ± 2.4
[1], x2 = 0.6423 | – | 1261.58 ± 2.4
[1], x2 = 0.7044 | – | 1190.86 ± 2.4
[1], x2 = 0.7717 | – | 1116.79 ± 2.4
[1], x2 = 0.8366 | – | 1047.86 ± 2.4
[1], x2 = 0.9155 | – | 967.12 ± 2.4
[2], x2 = 0.0408 | 0.00294 ± 0.000406 | –
[2], x2 = 0.0876 | 0.00552 ± 0.000454 | –
[2], x2 = 0.1399 | 0.00636 ± 0.000478 | –
[2], x2 = 0.1925 | 0.00495 ± 0.000454 | –
[2], x2 = 0.2463 | 0.00124 ± 0.000382 | –
[2], x2 = 0.3001 | -0.00495 ± 0.000454 | –
[2], x2 = 0.3515 | -0.0114 ± 0.00055 | –
[2], x2 = 0.3996 | -0.0181 ± 0.000693 | –
[2], x2 = 0.4154 | -0.0205 ± 0.000765 | –
[2], x2 = 0.4446 | -0.0241 ± 0.000837 | –
[2], x2 = 0.4644 | -0.0276 ± 0.000908 | –
[2], x2 = 0.486 | -0.0301 ± 0.00098 | –
[2], x2 = 0.522 | -0.0345 ± 0.00108 | –
[2], x2 = 0.5865 | -0.0383 ± 0.00117 | –
[2], x2 = 0.6595 | -0.0372 ± 0.00115 | –
[2], x2 = 0.7397 | -0.0331 ± 0.00105 | –
[2], x2 = 0.827 | -0.0259 ± 0.000884 | –
[2], x2 = 0.9159 | -0.0163 ± 0.000669 | –

BrCCBr [1,2-dibromoethane] + CCOC(C)=O
Settings | excess molar enthalpy [kcal/mol] | mass density [kg/m3]
[1], x2 = 0.0526 | – | 2091.79 ± 1.4
[1], x2 = 0.1032 | – | 2019.48 ± 1.6
[1], x2 = 0.1562 | – | 1945.11 ± 1.7
[1], x2 = 0.2107 | – | 1869.55 ± 1.8
[1], x2 = 0.2686 | – | 1790.65 ± 2
[1], x2 = 0.4371 | – | 1568.65 ± 2.3
[1], x2 = 0.4987 | – | 1490.07 ± 2.4
[1], x2 = 0.6182 | – | 1341.18 ± 2.5
[1], x2 = 0.6799 | – | 1266.02 ± 2.5
[1], x2 = 0.7399 | – | 1194.16 ± 2.5
[1], x2 = 0.8065 | – | 1115.57 ± 2.5
[1], x2 = 0.8705 | – | 1041.22 ± 2.5
[1], x2 = 0.9341 | – | 968.46 ± 2.4
[2], x2 = 0.0529 | 0.00619 ± 0.000478 | –
[2], x2 = 0.1142 | 0.00951 ± 0.000526 | –
[2], x2 = 0.1754 | 0.0111 ± 0.00055 | –
[2], x2 = 0.2376 | 0.0103 ± 0.000526 | –
[2], x2 = 0.2976 | 0.00906 ± 0.000502 | –
[2], x2 = 0.3548 | 0.00643 ± 0.000478 | –
[2], x2 = 0.4086 | 0.0028 ± 0.00043 | –
[2], x2 = 0.4579 | -0.00112 ± 0.000382 | –
[2], x2 = 0.5045 | -0.00509 ± 0.000454 | –
[2], x2 = 0.536 | -0.00822 ± 0.000502 | –
[2], x2 = 0.5453 | -0.00877 ± 0.000502 | –
[2], x2 = 0.5935 | -0.0133 ± 0.000598 | –
[2], x2 = 0.6556 | -0.0167 ± 0.000669 | –
[2], x2 = 0.7113 | -0.0176 ± 0.000693 | –
[2], x2 = 0.7914 | -0.0161 ± 0.000669 | –
[2], x2 = 0.8635 | -0.0119 ± 0.000574 | –
[2], x2 = 0.9367 | -0.00602 ± 0.000478 | –

BrCCBr [1,2-dibromoethane] + CCOC=O
Settings | excess molar enthalpy [kcal/mol] | mass density [kg/m3]
[1], x2 = 0.062 | – | 2094.82 ± 1.5
[1], x2 = 0.1228 | – | 2022.36 ± 1.6
[1], x2 = 0.1867 | – | 1945.54 ± 1.8
[1], x2 = 0.2494 | – | 1869.83 ± 2
[1], x2 = 0.3088 | – | 1797.46 ± 2.1
[1], x2 = 0.366 | – | 1727.27 ± 2.3
[1], x2 = 0.4251 | – | 1654.13 ± 2.4
[1], x2 = 0.4893 | – | 1574.29 ± 2.5
[1], x2 = 0.5444 | – | 1505.3 ± 2.5
[1], x2 = 0.6044 | – | 1429.44 ± 2.6
[1], x2 = 0.6588 | – | 1360.3 ± 2.6
[1], x2 = 0.7175 | – | 1285.15 ± 2.6
[1], x2 = 0.8304 | – | 1138.86 ± 2.6
[1], x2 = 0.8871 | – | 1064.61 ± 2.5
[1], x2 = 0.9405 | – | 994.23 ± 2.5
[2], x2 = 0.0568 | 0.0286 ± 0.000932 | –
[2], x2 = 0.1289 | 0.0522 ± 0.00151 | –
[2], x2 = 0.1965 | 0.0704 ± 0.00194 | –
[2], x2 = 0.2654 | 0.0861 ± 0.00232 | –
[2], x2 = 0.3304 | 0.0957 ± 0.00263 | –
[2], x2 = 0.3922 | 0.0993 ± 0.00263 | –
[2], x2 = 0.4464 | 0.0988 ± 0.00263 | –
[2], x2 = 0.497 | 0.0966 ± 0.00263 | –
[2], x2 = 0.5357 | 0.0939 ± 0.00263 | –
[2], x2 = 0.5433 | 0.0896 ± 0.00239 | –
[2], x2 = 0.5813 | 0.0887 ± 0.00239 | –
[2], x2 = 0.5831 | 0.0816 ± 0.00222 | –
[2], x2 = 0.6341 | 0.0816 ± 0.00222 | –
[2], x2 = 0.6895 | 0.0722 ± 0.00198 | –
[2], x2 = 0.7525 | 0.0596 ± 0.00167 | –
[2], x2 = 0.8186 | 0.0457 ± 0.00134 | –
[2], x2 = 0.8841 | 0.0318 ± 0.00103 | –
[2], x2 = 0.9442 | 0.016 ± 0.000669 | –
